Data as given in ChEMBL document CHEMBL5380795, “Design, Synthesis, and Bioactivity Investigation of Cyclic Lipopeptide Antibiotics Containing Eight to Nine Amino Acids” (J Med Chem, 2023).
Converted amounts (≈) assume the structure as drawn. The source made the active and inactive calls. No cut-off for these calls is given here.

Experiments:
Staphylococcus aureus = assay: Antibacterial activity against methicillin resistant Staphylococcus aureus ATCC 33591 assessed as inhibition of bacterial growth incubated for 18 to 24 hrs by broth microdilution method; assay type: functional; conditions: time 18-24 hrs
[1] = tested on: Staphylococcus epidermidis; assay: Antibacterial activity against methicillin resistant Staphylococcus epidermidis clinical isolate 19-5 assessed as inhibition of bacterial growth incubated for 18 to 24 hrs by broth microdilution method; assay type: functional; conditions: time 18-24 hrs
Escherichia coli [2] = assay: Antibacterial activity against Escherichia coli ATCC BAA-2523 assessed as inhibition of bacterial growth incubated for 18 to 24 hrs by broth microdilution method; assay type: functional; conditions: time 18-24 hrs
Escherichia coli [3] = assay: Antibacterial activity against Escherichia coli NCTC 13353 assessed as inhibition of bacterial growth incubated for 18 to 24 hrs by broth microdilution method; assay type: functional; conditions: time 18-24 hrs
Escherichia coli [4] = assay: Antibacterial activity against KPC producing Escherichia coli ATCC BAA-2340 assessed as inhibition of bacterial growth incubated for 18 to 24 hrs by broth microdilution method; assay type: functional; conditions: time 18-24 hrs
Klebsiella pneumoniae [5] = assay: Antibacterial activity against carbapenem resistant Klebsiella pneumoniae clinical isolate 19-15 assessed as inhibition of bacterial growth incubated for 18 to 24 hrs by broth microdilution method; assay type: functional; conditions: time 18-24 hrs
Klebsiella pneumoniae [6] = assay: Antibacterial activity against carbapenem resistant Klebsiella pneumoniae clinical isolate 19-17 assessed as inhibition of bacterial growth incubated for 18 to 24 hrs by broth microdilution method; assay type: functional; conditions: time 18-24 hrs
Pseudomonas aeruginosa [7] = assay: Antibacterial activity against Pseudomonas aeruginosa clinical isolate 19-1 assessed as inhibition of bacterial growth incubated for 18 to 24 hrs by broth microdilution method; assay type: functional; conditions: time 18-24 hrs
Pseudomonas aeruginosa [8] = assay: Antibacterial activity against carbapenem resistant Pseudomonas aeruginosa clinical isolate 19-3 assessed as inhibition of bacterial growth incubated for 18 to 24 hrs by broth microdilution method; assay type: functional; conditions: time 18-24 hrs
Pseudomonas aeruginosa [9] = assay: Antibacterial activity against Pseudomonas aeruginosa ATCC 27853 assessed as inhibition of bacterial growth incubated for 18 to 24 hrs by broth microdilution method; assay type: functional; conditions: time 18-24 hrs
Escherichia coli [10] = assay: Bactericidal activity against Escherichia coli ATCC BAA-2523 assessed as log reduction in bacterial count by measuring reduction in CFU/ml at 4 times MIC measured after 24 hrs by time-kill assay; assay type: functional
Escherichia coli [11] = assay: Bactericidal activity against Escherichia coli ATCC BAA-2523 assessed as bacterial count at 8 times MIC measured after 24 hrs by time-kill assay; assay type: functional, organism-based
Escherichia coli [12] = assay: Bactericidal activity against Escherichia coli ATCC BAA-2523 assessed as reduction in bacterial count at 0.5 to 2 times MIC measured after 2 to 24 hrs by time-kill assay; assay type: functional, organism-based; conditions: time 2-24 hrs
[13] = Cytotoxicity against human HK-2 cells assessed as inhibition of cell growth incubated for 72 hrs by CCK-8 assay; assay type: toxicity, cell-based
[14] = Selectivity index, ratio of IC50 for cytotoxicity against human HK-2 cells to MIC for antibacterial activity against Escherichia coli ATCC BAA-2523; assay type: toxicity, cell-based
[15] = Acute toxicity in ICR mouse assessed as animal death at 16 mg/kg, iv administered into tail vein and measured after 0.5 to 1 mins; assay type: organism-based; conditions: in vivo, time 0.5-1 min
Escherichia coli [16] = assay: Antibacterial activity against Escherichia coli ATCC BAA-2523 infected in ICR mouse assessed as mouse survival at 2 mg/kg, iv administered into tail vein and measured daily for 7 days relative to control; assay type: functional; conditions: ATCC BAA-2523, 168 h, time 7 day
Escherichia coli [17] = assay: Antibacterial activity against Escherichia coli ATCC BAA-2523 infected in ICR mouse assessed as mouse survival at 4 to 8 mg/kg, iv administered into tail vein and measured daily for 7 days; assay type: functional, organism-based; conditions: dose 4-8 mg/kg, time 7.0 day
[18] = Clearance in overnight fasted Sprague-Dawley rat at 4 mg/kg, ip measured for 24 hrs by LC-MS/MS analysis; assay type: ADME, organism-based; conditions: in vivo
[19] = AUC (0 to infinity) in overnight fasted Sprague-Dawley rat at 4 mg/kg, ip measured for 24 hrs by LC-MS/MS analysis; assay type: ADME, organism-based; set-up: dose 4 mg/kg, time 24 hrs, route ip; conditions: in vivo
[20] = Plasma protein binding in human at 2 uM incubated for 6 hrs by equilibrium dialysis based LC-MS/MS analysis; assay type: ADME, cell-free; conditions: read-out: PPB (converted)
Lipopolysaccharide (LPS) [21] = assay: Binding affinity to LIP-1 sensor chip immobilized Escherichia coli LPS assessed as increase in resonance units measured for 600 secs by SPR analysis; conditions: dose 0.125-4 µM, time 600.0 sec
Lipopolysaccharide (LPS) [22] = assay: Binding affinity to LIP-1 sensor chip immobilized Escherichia coli LPS assessed as dissociation constant measured for 600 secs by SPR analysis
Cell membrane = assay: Induction of outer membrane permeabilization in Escherichia coli ATCC 25922 assessed as increase in fluorescence at 1 to 16 ug/ml measured after 3 mins by NPN-dye based assay; assay type: subcellular; conditions: dose 1-16 µg/ml
Escherichia coli [23] = assay: Antibacterial activity against Escherichia coli ATCC 25922 assessed as inhibition of bacterial growth incubated for 18 to 24 hrs by broth microdilution method; assay type: functional; conditions: time 18-24 hrs
Escherichia coli [24] = assay: Potentiation of rifampicin induced antibacterial activity in Escherichia coli ATCC 25922 assessed as rifampicin MIC at 0.004 ug/ml incubated for 18 to 24 hrs by broth microdilution method (reference value: 2 ug/ml); assay type: functional; conditions: dose 0.004 µg/ml, time 18-24 hrs
Escherichia coli [25] = assay: Potentiation of rifampicin induced antibacterial activity in Escherichia coli ATCC 25922 assessed as rifampicin MIC at 0.008 ug/ml incubated for 18 to 24 hrs by broth microdilution method (reference value: 2 ug/ml); assay type: functional; conditions: dose 0.008 µg/ml, time 18-24 hrs
Escherichia coli [26] = assay: Potentiation of rifampicin induced antibacterial activity in Escherichia coli ATCC 25922 assessed as rifampicin MIC at 0.015 ug/ml incubated for 18 to 24 hrs by broth microdilution method (reference value: 2 ug/ml); assay type: functional; conditions: dose 0.015 µg/ml, time 18-24 hrs
Escherichia coli [27] = assay: Potentiation of rifampicin induced antibacterial activity in Escherichia coli ATCC 25922 assessed as rifampicin MIC at 0.06 ug/ml incubated for 18 to 24 hrs by broth microdilution method (reference value: 2 ug/ml); assay type: functional; conditions: dose 0.06 µg/ml, time 18-24 hrs
Escherichia coli [28] = assay: Potentiation of rifampicin induced antibacterial activity in Escherichia coli ATCC 25922 assessed as rifampicin MIC at 0.25 ug/ml incubated for 18 to 24 hrs by broth microdilution method (reference value: 2 ug/ml); assay type: functional; conditions: dose 0.25 µg/ml, time 18-24 hrs
Escherichia coli [29] = assay: Potentiation of rifampicin induced antibacterial activity in Escherichia coli ATCC 25922 assessed as rifampicin MIC at 1 ug/ml incubated for 18 to 24 hrs by broth microdilution method (reference value: 2 ug/ml); assay type: functional; conditions: dose 1 µg/ml, time 18-24 hrs
Escherichia coli [30] = assay: Potentiation of rifampicin induced antibacterial activity in Escherichia coli ATCC 25922 assessed as rifampicin MIC at 2 ug/ml incubated for 18 to 24 hrs by broth microdilution method (reference value: 2 ug/ml); assay type: functional; conditions: dose 2 µg/ml, time 18-24 hrs
Escherichia coli [31] = assay: Potentiation of rifampicin induced antibacterial activity in Escherichia coli ATCC 25922 assessed as rifampicin MIC at 4 ug/ml incubated for 18 to 24 hrs by broth microdilution method (reference value: 2 ug/ml); assay type: functional; conditions: dose 4 µg/ml, time 18-24 hrs

In the case of CCCCCCC[C@@H](O)CC(=O)N[C@H](CCN)C(=O)N[C@H]1CCNC(=O)[C@H]([C@@H](C)O)NC(=O)[C@H](CCN)NC(=O)[C@H](CCN)NC(=O)[C@H]([C@@H](C)O)NC(=O)[C@@H](Cc2ccccc2)NC(=O)[C@H](CCN)NC1=O, the MIC (Staphylococcus aureus) is reported as > 64 µg/mL, the MIC [1] is reported as 64 µg/mL (≈ 62.7 µM) and the MIC (Escherichia coli [2]) is reported as 0.5 µg/mL (≈ 0.49 µM). For the same molecule, the MIC (Escherichia coli [3]) was 2 µg/mL (≈ 1.96 µM), the MIC (Escherichia coli [4]) was 1 µg/mL (≈ 0.98 µM) and the MIC (Klebsiella pneumoniae [5]) was 4 µg/mL (≈ 3.92 µM). The MIC (Klebsiella pneumoniae [6]) was 8 µg/mL (≈ 7.84 µM), the MIC (Pseudomonas aeruginosa [7]) was 0.5 µg/mL (≈ 0.49 µM) and the MIC (Pseudomonas aeruginosa [8]) was 0.5 µg/mL (≈ 0.49 µM). For the same molecule, the MIC (Pseudomonas aeruginosa [9]) was 0.25 µg/mL (≈ 0.245 µM), the “log(activity)” value (Escherichia coli [10]) was 0.6 and the Activity (Escherichia coli [11]) was “Below limit of detection”. The Activity (Escherichia coli [12]) was “inactive”, the IC50 at 72 h [13] was 414 µg/mL (≈ 406 µM) and the selectivity ratio [14] was 828. The Activity [15] was “Toxic”, the survival at 2 mg/kg (Escherichia coli [16]) was 62.5% and the Activity (Escherichia coli [17]) was “Active”. It also gave a CL/F [18] of 3.8 mL/min/kg, an AUC(0-inf) [19] of 17600 ng·h/mL and a fraction unbound at 6 h, 2 µM [20] of 0.147. The Activity (Lipopolysaccharide (LPS) [21]) was “Dose-Dependent Effect”, the Kd (Lipopolysaccharide (LPS) [22]) was 480 nM and the Activity (Cell membrane) was “Active”. It also gave an MIC (Escherichia coli [23]) of 4 µg/mL (≈ 3.92 µM), an MIC (Escherichia coli [24]) of 0.5 µg/mL and an MIC (Escherichia coli [25]) of 0.5 µg/mL. For the same molecule, the MIC (Escherichia coli [26]) was 0.125 µg/mL, the MIC (Escherichia coli [27]) was ≤ 0.06 µg/mL and the MIC (Escherichia coli [28]) was ≤ 0.06 µg/mL. For the same molecule, the MIC (Escherichia coli [29]) was ≤ 0.06 µg/mL, the MIC (Escherichia coli [30]) was ≤ 0.06 µg/mL and the MIC (Escherichia coli [31]) was ≤ 0.06 µg/mL.
